# Laboratory results as given in ChEMBL document CHEMBL1159022, “Isolation of Latrunculin A, 6,7-Epoxylatrunculin A, Fijianolide A, and Euryfuran from a New Genus of the Family Thorectidae” (J Nat Prod, 1992).
# How the values were obtained:
# [1] = test system: Candida albicans; test: Antifungal activity against Candida albicans; type: functional
# [2] = Inhibition of PMA-induced mouse EL-4.IL-2 cell adhesion at 0.125 ug/ml; type: functional
# [3] = test system: P388; test: Antiproliferative activity against mouse P388 cells; type: functional, cell-based
# [4] = test system: A549; test: Antiproliferative activity against human A549 cells; type: functional, cell-based
# [5] = Inhibition of PMA-induced mouse EL-4.IL-2 cell adhesion at 0.003 ug/ml; type: functional
# [6] = Inhibition of PMA-induced mouse EL-4.IL-2 cell adhesion at 0.025 ug/ml; type: functional
# [7] = species on record: Mus musculus; test: Inhibition of mouse EL-4.IL-2 cell adhesion at 0.003 to 0.025 ug/ml in absence of PMA; type: functional; settings: filed as agonist
IC50 [3],IC50 [4],Structure (SMILES),MIC [1],inhibition at 0.125 µg/mL [2],inhibition at 0.003 µg/mL [5],inhibition at 0.025 µg/mL [6],Activity [7]
–,–,C/C1=C/C(=O)O[C@@H]2C[C@@H](CC[C@H](C)/C=C\C=C\CC1)O[C@@](O)([C@@H]1CSC(=O)N1)C2 [LATRUNCULIN A],15.6 µg/mL,50%,–,–,–
1.8 µg/mL,0.2 µg/mL,"C/C1=C/C(=O)O[C@@H]2C[C@@H](CC[C@H](C)/C=C\C3OC3CC1)O[C@@](O)([C@@H]1CSC(=O)N1)C2 (stereo partly drawn) [6,7-EPOXYLATRUNCULIN A]",25 µg/mL,–,100%,–,–
1.6 µg/mL,1.5 µg/mL,CC1(C)CCC[C@@]2(C)c3cocc3CC[C@H]12 [EURYFURAN],–,–,–,48%,–

Structure (SMILES),IC50 [3],IC50 [4],MIC [1],inhibition at 0.125 µg/mL [2],inhibition at 0.003 µg/mL [5],inhibition at 0.025 µg/mL [6],Activity [7]
C=C1C[C@H](C)C[C@@H]2CC=C[C@@H](C/C=C\C(=O)O[C@H]3C[C@@H](O[C@H]3/C=C/[C@@H]3CC(C)=CCO3)[C@@H](O)[C@@H](O)C1)O2 [FIJIANOLIDE A],1 µg/mL,1.4 µg/mL,6.2 µg/mL,–,–,–,Agonist
